# From ChEMBL document CHEMBL1128729, “Alpha- and beta-adrenoceptors: from the gene to the clinic. 2. Structure-activity relationships and therapeutic applications” (J Med Chem, 1995)
# How the values were obtained:
# [1] = Activity for Alpha-1 adrenergic receptor was assessed from effect on contraction of reserpine-pretreated guinea pig ileum; assay type: functional, tissue-based
# [2] = Activity for Alpha-1 adrenergic receptor was assessed from effect on inhibition of neurotransmission in field-stimulated, reserpine-pretreated guinea pig ileum.; assay type: functional, tissue-based
# [3] = Effective concentration for inhibition of neurotransmission in field-stimulated, reserpine-pretreated guinea pig ileum.; assay type: functional, tissue-based
# [4] = Effective dose for compound on contraction of reserpine-pretreated guinea pig aorta.; assay type: functional, tissue-based
# [5] = Effective dose for on contraction of rabbit aorta.; assay type: functional, tissue-based
# [6] = biological target: Beta-2 adrenergic receptor (Cavia porcellus, UniProt Q8K4Z4); assay: Activity for Beta-2 adrenergic receptor was assessed from effect on relaxation of guinea pig trachea.; assay type: functional
# Nischarin = Nischarin (Homo sapiens, UniProt Q9Y2I1); assay: Binding affinity for imidazoline receptor I-1
# Monoamine oxidase = biological target: T1, Monoamine oxidase (Homo sapiens, UniProt P21397+P27338); assay: Binding affinity for imidazoline receptor I-2; assay type: protein assay
# T1 sequence (P21397 whole entry): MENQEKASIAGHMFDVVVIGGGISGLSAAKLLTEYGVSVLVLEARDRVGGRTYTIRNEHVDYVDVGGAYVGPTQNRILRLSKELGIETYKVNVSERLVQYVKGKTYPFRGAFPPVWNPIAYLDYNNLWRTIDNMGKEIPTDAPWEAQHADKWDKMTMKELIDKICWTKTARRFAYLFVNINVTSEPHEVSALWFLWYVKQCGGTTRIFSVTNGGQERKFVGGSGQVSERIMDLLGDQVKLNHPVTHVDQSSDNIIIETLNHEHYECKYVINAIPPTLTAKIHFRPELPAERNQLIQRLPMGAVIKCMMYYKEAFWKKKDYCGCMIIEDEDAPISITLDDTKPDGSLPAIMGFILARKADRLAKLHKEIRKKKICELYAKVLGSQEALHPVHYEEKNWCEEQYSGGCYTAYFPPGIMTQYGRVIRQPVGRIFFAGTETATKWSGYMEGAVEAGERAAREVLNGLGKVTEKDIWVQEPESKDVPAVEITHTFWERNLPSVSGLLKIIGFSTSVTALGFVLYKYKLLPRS
# T1 sequence (P27338 whole entry): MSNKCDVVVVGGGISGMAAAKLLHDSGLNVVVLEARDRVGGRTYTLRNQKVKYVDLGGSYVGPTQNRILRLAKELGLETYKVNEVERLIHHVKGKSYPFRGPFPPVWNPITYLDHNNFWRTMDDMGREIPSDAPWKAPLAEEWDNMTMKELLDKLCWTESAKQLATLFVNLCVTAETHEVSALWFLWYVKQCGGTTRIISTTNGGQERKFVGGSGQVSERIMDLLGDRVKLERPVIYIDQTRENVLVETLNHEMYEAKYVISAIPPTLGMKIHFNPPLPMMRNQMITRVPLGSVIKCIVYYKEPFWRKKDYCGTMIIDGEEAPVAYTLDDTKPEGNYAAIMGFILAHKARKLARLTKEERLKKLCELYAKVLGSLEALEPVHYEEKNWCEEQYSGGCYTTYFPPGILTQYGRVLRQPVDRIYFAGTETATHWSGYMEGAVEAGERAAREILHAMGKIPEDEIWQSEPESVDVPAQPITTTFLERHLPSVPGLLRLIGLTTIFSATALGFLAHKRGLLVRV
# [7] = biological target: T2, Adrenergic receptor alpha-1 (Rattus norvegicus, UniProt P15823+P23944+P43140); assay: Effective dose for contraction of reserpine-pretreated rat vas deferens.; assay type: functional
# T2 sequence (P15823 whole entry): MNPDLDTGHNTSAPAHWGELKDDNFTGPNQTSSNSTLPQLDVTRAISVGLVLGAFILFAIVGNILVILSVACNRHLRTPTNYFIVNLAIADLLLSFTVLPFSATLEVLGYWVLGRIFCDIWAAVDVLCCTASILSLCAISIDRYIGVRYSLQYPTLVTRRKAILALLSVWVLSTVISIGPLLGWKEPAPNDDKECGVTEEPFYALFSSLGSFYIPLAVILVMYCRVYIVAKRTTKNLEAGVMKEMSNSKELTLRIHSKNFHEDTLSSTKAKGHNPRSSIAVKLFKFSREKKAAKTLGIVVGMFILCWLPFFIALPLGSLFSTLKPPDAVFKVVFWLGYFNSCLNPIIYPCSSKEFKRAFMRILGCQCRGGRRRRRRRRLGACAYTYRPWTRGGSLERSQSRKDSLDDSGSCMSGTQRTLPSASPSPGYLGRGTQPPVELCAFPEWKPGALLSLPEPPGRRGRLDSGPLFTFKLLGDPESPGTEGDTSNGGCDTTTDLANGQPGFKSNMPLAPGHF
# T2 sequence (P23944 whole entry): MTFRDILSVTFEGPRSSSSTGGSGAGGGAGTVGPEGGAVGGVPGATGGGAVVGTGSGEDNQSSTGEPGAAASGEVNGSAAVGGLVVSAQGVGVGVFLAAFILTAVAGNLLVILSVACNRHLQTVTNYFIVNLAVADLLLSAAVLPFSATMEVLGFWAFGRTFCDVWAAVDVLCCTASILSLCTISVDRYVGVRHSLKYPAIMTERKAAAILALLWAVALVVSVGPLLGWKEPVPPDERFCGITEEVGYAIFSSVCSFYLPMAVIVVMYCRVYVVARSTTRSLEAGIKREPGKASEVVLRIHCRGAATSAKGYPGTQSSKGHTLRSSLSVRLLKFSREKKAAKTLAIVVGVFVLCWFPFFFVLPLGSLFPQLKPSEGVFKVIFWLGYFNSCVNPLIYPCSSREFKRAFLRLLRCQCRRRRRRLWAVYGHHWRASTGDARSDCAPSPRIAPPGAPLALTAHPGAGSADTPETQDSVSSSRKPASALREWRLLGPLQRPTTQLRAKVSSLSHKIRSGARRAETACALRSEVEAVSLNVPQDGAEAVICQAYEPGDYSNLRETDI
# T2 sequence (P43140 whole entry): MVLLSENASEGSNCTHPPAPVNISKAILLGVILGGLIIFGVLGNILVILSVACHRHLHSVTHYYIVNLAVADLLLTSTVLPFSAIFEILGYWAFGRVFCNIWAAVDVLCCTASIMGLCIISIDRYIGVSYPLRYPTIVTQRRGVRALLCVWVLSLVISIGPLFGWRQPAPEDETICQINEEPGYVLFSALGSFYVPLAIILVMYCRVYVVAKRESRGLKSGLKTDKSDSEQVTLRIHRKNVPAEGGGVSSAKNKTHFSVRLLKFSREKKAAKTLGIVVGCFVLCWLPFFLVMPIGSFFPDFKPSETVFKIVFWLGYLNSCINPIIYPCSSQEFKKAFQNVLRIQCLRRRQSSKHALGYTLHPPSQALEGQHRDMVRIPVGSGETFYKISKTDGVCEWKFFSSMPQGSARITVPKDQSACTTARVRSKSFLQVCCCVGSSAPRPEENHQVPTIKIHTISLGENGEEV
# [8] = Effective dose for contraction of reserpine-pretreated guinea pig aorta.; assay type: functional, tissue-based
# [9] = Effective dose for inhibition of neurotransmission in field-stimulated, reserpine-pretreated guinea pig ileum.; assay type: functional, tissue-based
# [10] = Effective dose for contraction of rabbit aorta.; assay type: functional, tissue-based
# Beta-2 adrenergic receptor, sequence (Q8K4Z4 whole entry): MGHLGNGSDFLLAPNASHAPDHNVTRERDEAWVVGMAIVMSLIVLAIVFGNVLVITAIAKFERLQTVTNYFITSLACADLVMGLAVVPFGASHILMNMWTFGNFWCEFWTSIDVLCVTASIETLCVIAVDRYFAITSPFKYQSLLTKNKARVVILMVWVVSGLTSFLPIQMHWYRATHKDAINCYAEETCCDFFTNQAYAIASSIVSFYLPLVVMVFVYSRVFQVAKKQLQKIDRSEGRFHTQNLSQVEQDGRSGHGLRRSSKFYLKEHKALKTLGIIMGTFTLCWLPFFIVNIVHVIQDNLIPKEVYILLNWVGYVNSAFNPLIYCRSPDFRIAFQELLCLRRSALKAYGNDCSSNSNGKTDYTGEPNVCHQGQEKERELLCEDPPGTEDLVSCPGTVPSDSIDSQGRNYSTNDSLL
# Nischarin, sequence (Q9Y2I1 whole entry): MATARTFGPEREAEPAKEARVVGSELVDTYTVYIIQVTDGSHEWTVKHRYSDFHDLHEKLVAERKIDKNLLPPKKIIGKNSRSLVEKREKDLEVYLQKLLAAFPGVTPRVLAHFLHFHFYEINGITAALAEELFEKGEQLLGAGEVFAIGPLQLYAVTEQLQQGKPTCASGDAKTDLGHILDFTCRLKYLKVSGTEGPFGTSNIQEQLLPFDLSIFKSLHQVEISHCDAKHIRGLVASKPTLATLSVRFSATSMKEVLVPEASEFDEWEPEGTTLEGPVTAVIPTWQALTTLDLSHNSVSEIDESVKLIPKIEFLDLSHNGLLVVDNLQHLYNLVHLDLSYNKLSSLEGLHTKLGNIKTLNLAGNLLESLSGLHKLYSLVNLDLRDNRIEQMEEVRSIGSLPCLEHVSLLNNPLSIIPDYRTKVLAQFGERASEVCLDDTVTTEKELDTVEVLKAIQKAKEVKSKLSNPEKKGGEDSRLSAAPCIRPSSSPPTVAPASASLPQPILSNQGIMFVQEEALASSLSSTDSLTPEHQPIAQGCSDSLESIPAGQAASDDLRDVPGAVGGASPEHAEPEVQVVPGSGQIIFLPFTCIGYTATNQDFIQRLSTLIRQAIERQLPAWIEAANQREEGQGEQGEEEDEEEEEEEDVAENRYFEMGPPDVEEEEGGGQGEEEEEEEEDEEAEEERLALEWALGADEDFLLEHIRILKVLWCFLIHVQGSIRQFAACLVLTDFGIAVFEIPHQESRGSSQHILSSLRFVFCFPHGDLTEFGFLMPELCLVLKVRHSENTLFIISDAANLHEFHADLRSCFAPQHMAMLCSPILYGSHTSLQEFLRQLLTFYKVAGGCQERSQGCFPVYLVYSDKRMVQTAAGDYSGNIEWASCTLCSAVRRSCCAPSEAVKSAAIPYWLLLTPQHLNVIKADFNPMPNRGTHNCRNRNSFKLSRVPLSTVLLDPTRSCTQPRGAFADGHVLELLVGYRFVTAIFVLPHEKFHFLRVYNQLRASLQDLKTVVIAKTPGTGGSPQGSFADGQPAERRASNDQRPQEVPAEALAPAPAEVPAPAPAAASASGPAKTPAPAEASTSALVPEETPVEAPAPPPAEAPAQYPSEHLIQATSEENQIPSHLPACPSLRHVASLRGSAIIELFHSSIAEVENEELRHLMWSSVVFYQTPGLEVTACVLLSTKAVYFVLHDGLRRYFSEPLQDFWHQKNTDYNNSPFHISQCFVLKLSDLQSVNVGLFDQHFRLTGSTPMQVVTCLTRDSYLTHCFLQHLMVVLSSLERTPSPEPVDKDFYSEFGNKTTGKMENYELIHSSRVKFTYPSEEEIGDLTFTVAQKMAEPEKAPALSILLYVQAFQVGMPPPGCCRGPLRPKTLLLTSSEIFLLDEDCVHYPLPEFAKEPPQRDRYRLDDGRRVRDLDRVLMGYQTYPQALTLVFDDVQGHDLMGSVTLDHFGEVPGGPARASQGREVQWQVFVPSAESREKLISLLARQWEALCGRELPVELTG
structure (smiles),measurement,setting,value
C[C@@H](N)[C@@H](O)c1ccc(O)c(O)c1,EC50,[1],46800 nM
same,EC50,[2],10000 nM
"NCC(O)c1ccc(O)c(O)c1 (single isomer, unassigned) [NOREPINEPHRINE]",EC50,[3],14500 nM
same,EC50,[4],12000 nM
same,EC50,[5],2000 nM
same,EC50,[6],30000 nM
Clc1cccc(Cl)c1NC1=NCCN1 [CLONIDINE],Ki,Nischarin,< 10 nM
same,Ki,Monoamine oxidase,> 100 nM
C[C@H](N)[C@H](O)c1ccc(O)c(O)c1 [LEVONORDEFRIN],EC50,[3],19 nM
same,EC50,[7],776 nM
NC[C@H](O)c1ccc(O)c(O)c1 [NOREPINEPHRINE],EC50,[8],112 nM
same,EC50,[9],30 nM
same,EC50,[10],6.6 nM
same,EC50,[6],213 nM
